The NIST ThermoML archive (doi:10.1021/je050509f)
± gives the expanded uncertainty stated by the source.

Test: mn = molality of the nth substance listed, in mol/kg
Conditions: Liquid, Vibrating tube method

[Cl-].[Cl-].[Zn+2] [zinc chloride] + CO
Conditions | mass density [kg/m3]
298.27 K, 170 kPa, m1 = 0.8018 | 861.37 ± 0.42
298.27 K, 188 kPa, m1 = 0.4768 | 833.84 ± 0.42
298.27 K, 200 kPa, m1 = 5.367 | 1205.67 ± 0.43
298.27 K, 203 kPa, m1 = 1.039 | 881.26 ± 0.42
298.27 K, 205 kPa, m1 = 0.1348 | 801.32 ± 0.43
298.27 K, 205 kPa, m1 = 1.977 | 959.59 ± 0.42
298.27 K, 4983 kPa, m1 = 5.367 | 1209.53 ± 0.44
298.27 K, 4985 kPa, m1 = 1.039 | 885.56 ± 0.42
298.27 K, 4994 kPa, m1 = 0.4768 | 838 ± 0.43
298.27 K, 4996 kPa, m1 = 0.8018 | 865.98 ± 0.43
298.27 K, 5004 kPa, m1 = 0.1348 | 805.97 ± 0.44
298.27 K, 5014 kPa, m1 = 1.977 | 963.97 ± 0.42
298.27 K, 9992 kPa, m1 = 5.367 | 1213.48 ± 0.46
298.27 K, 9995 kPa, m1 = 0.8018 | 870.53 ± 0.43
298.27 K, 9996 kPa, m1 = 1.977 | 968.35 ± 0.42
298.27 K, 9997 kPa, m1 = 1.039 | 889.93 ± 0.43
298.27 K, 10000 kPa, m1 = 0.1348 | 810.57 ± 0.45
298.27 K, 10004 kPa, m1 = 0.4768 | 841.99 ± 0.44
298.27 K, 14982 kPa, m1 = 0.4768 | 845.9 ± 0.45
298.27 K, 14987 kPa, m1 = 1.039 | 894.12 ± 0.43
298.27 K, 14995 kPa, m1 = 5.367 | 1217.3 ± 0.47
298.27 K, 14997 kPa, m1 = 1.977 | 972.58 ± 0.42
298.27 K, 15000 kPa, m1 = 0.8018 | 874.88 ± 0.44
298.27 K, 15010 kPa, m1 = 0.1348 | 814.96 ± 0.46
298.27 K, 19985 kPa, m1 = 1.039 | 898.15 ± 0.44
298.27 K, 19988 kPa, m1 = 5.367 | 1221.03 ± 0.5
298.27 K, 19989 kPa, m1 = 1.977 | 976.63 ± 0.42
298.27 K, 20001 kPa, m1 = 0.8018 | 879.03 ± 0.44
298.27 K, 20007 kPa, m1 = 0.1348 | 819.13 ± 0.47
298.27 K, 20018 kPa, m1 = 0.4768 | 849.66 ± 0.46
298.27 K, 24988 kPa, m1 = 0.8018 | 883.01 ± 0.45
298.27 K, 24993 kPa, m1 = 1.977 | 980.56 ± 0.42
298.27 K, 24996 kPa, m1 = 5.367 | 1224.68 ± 0.52
298.27 K, 24999 kPa, m1 = 0.1348 | 823.11 ± 0.48
298.27 K, 25003 kPa, m1 = 1.039 | 902.02 ± 0.44
298.27 K, 25032 kPa, m1 = 0.4768 | 853.57 ± 0.47
298.27 K, 29990 kPa, m1 = 1.977 | 984.35 ± 0.42
298.27 K, 29994 kPa, m1 = 5.367 | 1228.21 ± 0.55
298.27 K, 30002 kPa, m1 = 0.1348 | 826.95 ± 0.5
298.27 K, 30004 kPa, m1 = 0.4768 | 857.56 ± 0.48
298.27 K, 30004 kPa, m1 = 0.8018 | 886.87 ± 0.46
298.27 K, 30007 kPa, m1 = 1.039 | 905.8 ± 0.45
298.27 K, 34983 kPa, m1 = 1.039 | 909.4 ± 0.45
298.27 K, 34992 kPa, m1 = 0.8018 | 890.56 ± 0.47
298.27 K, 34993 kPa, m1 = 0.1348 | 830.61 ± 0.51
298.27 K, 34993 kPa, m1 = 0.4768 | 862.15 ± 0.49
298.27 K, 34996 kPa, m1 = 5.367 | 1231.68 ± 0.58
298.27 K, 35014 kPa, m1 = 1.977 | 988.04 ± 0.42
298.27 K, 39991 kPa, m1 = 1.039 | 912.9 ± 0.46
298.27 K, 39994 kPa, m1 = 1.977 | 991.58 ± 0.42
298.27 K, 39994 kPa, m1 = 5.367 | 1235.1 ± 0.62
298.27 K, 39997 kPa, m1 = 0.4768 | 866.01 ± 0.5
298.27 K, 39997 kPa, m1 = 0.8018 | 894.15 ± 0.47
298.27 K, 40006 kPa, m1 = 0.1348 | 834.16 ± 0.53
323.24 K, 207 kPa, m1 = 0.4768 | 808.23 ± 0.43
323.24 K, 209 kPa, m1 = 0.1348 | 777.17 ± 0.43
323.24 K, 209 kPa, m1 = 5.367 | 1172.87 ± 0.43
323.24 K, 220 kPa, m1 = 1.039 | 855.22 ± 0.42
323.24 K, 230 kPa, m1 = 1.977 | 931.65 ± 0.42
323.24 K, 233 kPa, m1 = 0.8018 | 835.94 ± 0.42
323.24 K, 4983 kPa, m1 = 0.8018 | 841.09 ± 0.43
323.24 K, 4985 kPa, m1 = 0.4768 | 813.47 ± 0.43
323.24 K, 4990 kPa, m1 = 0.1348 | 782.51 ± 0.44
323.24 K, 4993 kPa, m1 = 1.977 | 936.57 ± 0.42
323.24 K, 4994 kPa, m1 = 1.039 | 860.28 ± 0.43
323.24 K, 4999 kPa, m1 = 5.367 | 1177.21 ± 0.44
323.24 K, 9985 kPa, m1 = 1.977 | 941.48 ± 0.42
323.24 K, 9994 kPa, m1 = 0.4768 | 818.67 ± 0.44
323.24 K, 9997 kPa, m1 = 5.367 | 1181.61 ± 0.45
323.24 K, 10002 kPa, m1 = 0.8018 | 846.25 ± 0.44
323.24 K, 10003 kPa, m1 = 0.1348 | 787.77 ± 0.45
323.24 K, 10005 kPa, m1 = 1.039 | 865.32 ± 0.43
323.24 K, 14982 kPa, m1 = 0.4768 | 823.55 ± 0.45
323.24 K, 14998 kPa, m1 = 1.977 | 946.2 ± 0.42
323.24 K, 14999 kPa, m1 = 0.1348 | 792.71 ± 0.47
323.24 K, 14999 kPa, m1 = 1.039 | 870.09 ± 0.44
323.24 K, 15002 kPa, m1 = 0.8018 | 851.11 ± 0.44
323.24 K, 15002 kPa, m1 = 5.367 | 1185.89 ± 0.46
323.24 K, 19995 kPa, m1 = 0.4768 | 828.21 ± 0.47
323.24 K, 19998 kPa, m1 = 5.367 | 1190.03 ± 0.48
323.24 K, 19999 kPa, m1 = 0.8018 | 855.74 ± 0.45
323.24 K, 19999 kPa, m1 = 1.977 | 950.72 ± 0.42
323.24 K, 20000 kPa, m1 = 0.1348 | 797.39 ± 0.48
323.24 K, 20003 kPa, m1 = 1.039 | 874.64 ± 0.44
323.24 K, 24989 kPa, m1 = 0.8018 | 860.16 ± 0.46
323.24 K, 24989 kPa, m1 = 1.977 | 955.05 ± 0.42
323.24 K, 24989 kPa, m1 = 5.367 | 1194.06 ± 0.5
323.24 K, 24990 kPa, m1 = 1.039 | 878.98 ± 0.45
323.24 K, 24994 kPa, m1 = 0.1348 | 801.85 ± 0.5
323.24 K, 24999 kPa, m1 = 0.4768 | 832.65 ± 0.48
323.24 K, 29987 kPa, m1 = 0.4768 | 836.86 ± 0.49
323.24 K, 29989 kPa, m1 = 0.8018 | 864.4 ± 0.47
323.24 K, 29990 kPa, m1 = 1.977 | 959.23 ± 0.43
323.24 K, 29993 kPa, m1 = 0.1348 | 806.09 ± 0.52
323.24 K, 30001 kPa, m1 = 5.367 | 1197.99 ± 0.52
323.24 K, 30007 kPa, m1 = 1.039 | 883.18 ± 0.46
323.24 K, 34987 kPa, m1 = 5.367 | 1201.8 ± 0.55
323.24 K, 34989 kPa, m1 = 1.039 | 887.17 ± 0.47
323.24 K, 34998 kPa, m1 = 0.8018 | 868.48 ± 0.48
323.24 K, 35001 kPa, m1 = 1.977 | 963.27 ± 0.43
323.24 K, 35003 kPa, m1 = 0.4768 | 840.94 ± 0.51
323.24 K, 35007 kPa, m1 = 0.1348 | 810.14 ± 0.53
323.24 K, 39991 kPa, m1 = 1.039 | 891.04 ± 0.48
323.24 K, 39994 kPa, m1 = 0.4768 | 844.83 ± 0.52
323.24 K, 39995 kPa, m1 = 0.8018 | 872.4 ± 0.49
323.24 K, 39995 kPa, m1 = 5.367 | 1205.55 ± 0.58
323.24 K, 39997 kPa, m1 = 0.1348 | 814 ± 0.55
323.24 K, 39997 kPa, m1 = 1.977 | 967.17 ± 0.42
348.27 K, 305 kPa, m1 = 1.977 | 904.26 ± 0.42
348.27 K, 308 kPa, m1 = 0.1348 | 752.15 ± 0.43
348.27 K, 320 kPa, m1 = 0.4768 | 782.8 ± 0.43
348.27 K, 328 kPa, m1 = 0.8018 | 810.17 ± 0.43
348.27 K, 330 kPa, m1 = 1.039 | 829.39 ± 0.42
348.27 K, 335 kPa, m1 = 5.367 | 1141.63 ± 0.43
348.27 K, 4982 kPa, m1 = 5.367 | 1146.29 ± 0.43
348.27 K, 4983 kPa, m1 = 0.4768 | 788.73 ± 0.44
348.27 K, 4984 kPa, m1 = 1.977 | 909.72 ± 0.42
348.27 K, 4989 kPa, m1 = 0.1348 | 758.25 ± 0.44
348.27 K, 4994 kPa, m1 = 1.039 | 835.08 ± 0.43
348.27 K, 4999 kPa, m1 = 0.8018 | 816.01 ± 0.43
348.27 K, 9985 kPa, m1 = 1.977 | 915.25 ± 0.42
348.27 K, 9992 kPa, m1 = 0.8018 | 821.86 ± 0.44
348.27 K, 9992 kPa, m1 = 5.367 | 1151.14 ± 0.44
348.27 K, 9993 kPa, m1 = 0.1348 | 764.3 ± 0.46
348.27 K, 9998 kPa, m1 = 0.4768 | 794.7 ± 0.45
348.27 K, 10000 kPa, m1 = 1.039 | 840.82 ± 0.44
348.27 K, 14985 kPa, m1 = 0.4768 | 800.24 ± 0.46
348.27 K, 14985 kPa, m1 = 0.8018 | 827.35 ± 0.45
348.27 K, 14987 kPa, m1 = 1.039 | 846.22 ± 0.45
348.27 K, 14992 kPa, m1 = 1.977 | 920.51 ± 0.43
348.27 K, 14999 kPa, m1 = 0.1348 | 769.95 ± 0.48
348.27 K, 15020 kPa, m1 = 5.367 | 1155.81 ± 0.45
348.27 K, 19986 kPa, m1 = 1.977 | 925.5 ± 0.43
348.27 K, 19989 kPa, m1 = 0.4768 | 805.48 ± 0.48
348.27 K, 19994 kPa, m1 = 0.8018 | 832.56 ± 0.46
